Values quoted from earlier work as cited in publication PMC2033546, “Effects of somatostatin analogue RC-160 and bombesin/gastrin-releasing peptide antagonists on the growth of human small-cell and non-small-cell lung carcinomas in nude mice” (British Journal of Cancer, 1994).
Bridges are numbered along the chain shown (N, C = ends). Where no end group is shown, it is not given here.

Assays:
IGF-I levels = conditions: patients with SCLC; ref Macauley et al. (1991); cited from earlier work
Excerpt: (§1) Br. J. Cancer (1994). 70, 886 892 ? Macmillan Press Ltd..

[1] = test system: MIA PaCa-2 human pancreatic cancer cell line; conditions: ref Liebow et al., 1989; cited from earlier work
Excerpt: as §1

Substance: octreotide
- IGF-I levels (in words) (IGF-I levels): reduced IGF-I levels

Substance: somatostatin: native peptide somatostatin (AGCKNFFWKTFTSC; disulfide 3-14; ends not checked; UniProt P61278 103-116, looked up) [reference compound]
- Effect on EGF-stimulated cell growth (in words) [1]: reversed the stimulatory effect of EGF
- Effect on EGF-stimulated phosphorylation of the tyrosine kinase domain of the EGF receptors (in words) [1]: reversed the stimulatory effect of EGF
